Assay results taken from PMC7997182, “Unravelling the Dermatological Potential of the Brown Seaweed Carpomitra costata” (Marine Drugs, 2021).

Experiments:
collagenase (type IV) = target: T1, collagenase (type IV); assay: fluorogenic EnzChek gelatinase/collagenase kit; format: biochemical; settings: per kit instructions; positive control
T1 construct: gene colG; known from the kit
Source text: fluorogenic EnzChek gelatinase/collagenase kit on collagenase (type IV)

hyaluronidase = target: T2, hyaluronidase; assay: hyaluronic acid turbidity, absorbance […] nm; format: biochemical; settings: 37 °C; hyaluronic acid substrate pH 5.35; reference compound; printed interval does not contain the value
T2 construct: gene SPAM1

What does the source list for `O=C(O[C@@H]1Cc2c(O)cc(O)cc2O[C@@H]1c1cc(O)c(O)c(O)c1)c1cc(O)c(O)c(O)c1` [EGCG, epigallocatechin gallate]?
Collagenase (collagenase (type IV)): 4.8 (4.1–5.5) µg/mL; Hyaluronidase (hyaluronidase): 119.1 (126.1–320.4) µg/mL
